Source: patent US20250368687A1, “SHORT SYNTHETIC PEPTIDES AND USES THEREOF IN THE TREATMENT OF ENTEROVIRUS INFECTION” (CITY UNIVERSITY OF HONG KONG, priority 2024, published 2025)

What was measured:
Type in all cases: cell-based
[1] = tested on: Hsp27 and hnRNP A1 redistribution in RD cells; assay: Immunofluorescence colocalization assay of Hsp27/hnRNP A1 redistribution, RD cells with or without EV-A71 infection; conditions: 25 μM for 2h; for redistribution of Hsp27 and hnRNP A1 in EV-A71-infected RD cells: EV-A71 MOI 40 for 6h
Experimental: (§1) The cells on coverslips were infected with EV-A71 at the multiplicity of infection (MOI) of 40 for 6 hrs to assure the high efficiency of viral infection. Then the cells were fixed by 4% paraformaldehyde for 20 min, permeabilized by 0.5% Triton X-100 for 15 min, blocked with 5% BSA for 2 hrs, and stained by incubation with anti-Hsp27 (GTX101145) and anti-hnRNP A1 (sc-32301) antibody, then with Alexa Fluor 488 conjugated anti-rabbit antibody and Alexa Fluor 594 conjugated anti-mouse antibody respectively. After washing four times with 0.2% Triton X-100, the nuclei were stained with DAPI or Hoechst for 5 min. The images were captured by a Nikon A1HD25 High speed and Large Field of View Confocal Microscope. Colocalization analysis was conducted using the JACoP-plugin of the extended ImageJ version Fiji. The M1 colocalization coefficient was computed to illustrate the colocalization levels of Hsp27 and hnRNP A1 overlapped with Hoechst.
Hsp27 is predominantly located in the cytoplasm, however, stress (e.g., heat shock, virus infection) can induce partial redistribution of Hsp27 from the cytoplasm to the nucleus, concomitantly with its phosphorylation. We thus postulated that the cellular redistribution of Hsp27 may be associated with its phosphorylation upon EV-A71 infection. To verify the hypothesis, RD cells were with SB203580 at 0, 2, 4, and 8 μM for 2 h, and the cells were infected with EV-A71 for 6 h. […] The colocalization of Hsp27 and DAPI, which stands for the level of redistribution of Hsp27, was also quantified. The colocalization coefficient M1 was computed as the fraction of Hsp27 colocalized with DAPI in the total Hsp27 area using the JACoP-plugin in FIJI.
We hypothesized that peptides S78 and S82A could interfere with Ser78 phosphorylation while peptides S78A (Ser78 replaced by Ala78) would not affect the phosphorylation of Ser78 of Hsp27. […] RD cells were pre-treated with peptide S78, S78A or S82A at the concentrations of 25 μM for 2h and then infected with or without EV-A71 at an MOI of 40 for 6h.

[2] = tested on: EV-A71 IRES activity; assay: Dual-luciferase IRES reporter assay in HEK 293T cells pre-treated with peptides; conditions: 25 μM for 2 hours, 24 h (FIG. 11A)
Experimental: (§2) FIGS. 10A-10K. Peptide S78 inhibited EV-A71 replication and propagation. (FIG. 10A) RD cells were pre-treated with peptides S78 or for 2 hours and infected with EV-A71 at the MOI of 10 for 6 hours. Cell lysates were collected for western blot assay. Hsp27 phosphorylation on Ser 15, 78, 82 were detected by specific antibodies. β-Actin were detected as internal control. (FIG. 10B) Densitometric analysis of FIG. 9A. (FIG. 10C) HEK 293T cells were pre-treated with peptides S78 or S78A at the concentration of 25 μM for 2 hours and then co-transfected with Hsp27-WT plasmid (800 ng), pIRES reporter plasmid (200 ng) and 2A^pro-expressing plasmid or 2AC110A-expressing plasmid (200 ng) for 24 h, then the luciferase activity was measured. (FIG. 10D-10E) RD cells were treated with peptides S78 or S78A and then infected with EV-A71. EV-A71 VP1 were detected. (FIG. 10F) RD cells were treated with peptides and then infected with EV-A71 at the MOI of 1 for 12 hours. The EV-A71-induced CPE was captured. (FIG. 10G-10H) Intracellular viral RNA was extracted and quantified by qPCR. (FIG. 10I) Densitometric analysis FIG. 9D-E. (FIG. 10J) RD cells were treated with peptides S78 or and then infected with EV-A71 at the MOI of 1 for 12 hours. Extracellular viral RNA was extracted and quantified by qPCR. (FIG. 10K) Viral titration was calculated by TCID50. The Statistical analyses were carried out using Student's t-test. *: p<0.05, **: p<0.01, ***: p<0.001. Data are expressed as mean ±SD.
(§3) FIGS. 11A-11G Inhibition of EV-A71 Protein Translation and Viral Reproduction by peptide S82A. (FIG. 11A) HEK 293T cells were pre-treated with peptides NC, S78, S78A, S82A, or S78-3A at the concentration of 25 μM for 2 hours and then co-transfected with Hsp27-WT plasmid (800 ng), pIRES reporter plasmid (200 ng) and 2A^pro-expressing plasmid for 24 h, then the luciferase activity was measured. (FIG. 11B) RD cells were pre-treated with peptides NC at indicated concentrations for 2 hours and infected with EV-A71 at the MOI of 1 for 9 hours. Intracellular viral RNA was extracted and quantified by qPCR. […] EV-A71 VP1 were detected. β-Actin was detected as an internal control. (FIG. 11F) Densitometric analysis of the EV-A71 VP1 level in FIG. S7C-E was quantified and normalized with β-Actin using ImageJ. […] Viral titration was calculated. […] Data are expressed as mean ±SD.
HEK 293T cells were seeded in 24-wells, and then co-transfected with plasmids to simultaneously express 2A^pro (200 ng), pIRES reporter (200 ng), and the wild-type Hsp27 or its mutants (800 ng). […] The Renilla luciferase (RLuc) and Firefly luciferase (FLuc) activity were determined by using a dual-luciferase reporter assay (Promega) according to the manufacturer's instructions in a Lumat LB9507 bioluminometer.

[3] = tested on: EV-A71 VP1; assay: Western blot of EV-A71 VP1 level in RD cells; conditions: for reduction of VP1 level (densitometric assay): 50 μM; for EV-A71 VP1 protein level (in words): indicated concentrations
Experimental: as §2
FIGS. 11A-11G Inhibition of EV-A71 Protein Translation and Viral Reproduction by peptide S82A. (FIG. 11A) HEK 293T cells were pre-treated with peptides NC, S78, S78A, S82A, or S78-3A at the concentration of 25 μM for 2 hours and then co-transfected with Hsp27-WT plasmid (800 ng), pIRES reporter plasmid (200 ng) and 2A^pro-expressing plasmid for 24 h, then the luciferase activity was measured. (FIG. 11B) RD cells were pre-treated with peptides NC at indicated concentrations for 2 hours and infected with EV-A71 at the MOI of 1 for 9 hours. Intracellular viral RNA was extracted and quantified by qPCR. (FIG. 11C-11E) RD cells were treated with peptides NC, S82A, or S78-3A at indicated concentrations for 2 hours and then infected with EV-A71 at the MOI of 1 for 9 hours. Cell lysates were collected for western blot assay. EV-A71 VP1 were detected. β-Actin was detected as an internal control. (FIG. 11F) Densitometric analysis of the EV-A71 VP1 level in FIG. S7C-E was quantified and normalized with β-Actin using ImageJ. (FIG. 11G) RD cells were treated with peptides S78, S78A, S82A, or S78-3A at the concentration of 25 μM for 2 hours and then infected with EV-A71 at the MOI of 0.1 for 24 hours. Viral titration was calculated. The Statistical analyses were carried out using Student's t-test. *: p<0.05, **: p<0.01, ***: p<0.001. Data are expressed as mean ±SD.
After cell lysis in Nonidet-P40 (NP-40) buffer, the cell lysates were centrifuged, and the concentration was determined by Bradford assay (Bio-Rad). 20 μg of protein was used for 12% SDS-PAGE and transferred onto polyvinylidene fluoride membrane (PVDF) (GE, MA, USA). Following 5% bovine serum albumin (BSA) blocking for 1 hrs, the membrane was incubated with antibodies (1:1000) against Hsp27 (sc-13132), pHsp27-Ser15 (ab76313), pHsp27-Ser78 (ADI-SPA-523), pHsp27-Ser82 (ab155987), VP1 (GTX132339), β-Actin (sc-47778), hnRNP A1 (sc-32301), or GAPDH (sc-32233) overnight in 4° C. After secondary antibodies (HRP-conjugated Affinipure Goat Anti-Mouse IgG(H+L), SA00001-1, and HRP-conjugated Affinipure Goat Anti-Rabbit IgG(H+L), SA00001-2) incubation for 1 hrs, the protein was visualized with a chemiluminescence reagent (PerkinElmer, MA, USA) on Bio-Rad Chemidoc Imaging System. The protein bands were quantified by densitometry with ImageJ if necessary.

[4] = tested on: EV-A71; assay: Virus titration (TCID50); conditions: 25 μM for 2 hours, EV-A71 MOI 0.1 for 24 hours, RD cells (FIG. 11G)
Experimental: as §2, with “The Statistical analyses were carried out using Student's t-test. *: p<0.05, **: p<0.01, ***: p<0.001.” left out
as §3, with “(FIG. 11B) RD cells were pre-treated with peptides NC at indicated concentrations for 2 hours and infected with EV-A71 at the MOI of 1 for 9 hours.” left out, “±SD. […]” for “±SD.”

[5] = tested on: RD cells; assay: CCK-8 assay; conditions: data not shown
Experimental: (§4) RD cells were seeded in 96-well cell plates (1×10^4/well) and placed in the 5% CO2 incubator for 1 day. Then the cells were treated with peptides for 2 days. 90 μl medium and 10 μl of CCK-8 (BioSharp, BS350B) was added to each well of the 96-well plate, which were incubated at 37° C. for 1 h. A microplate reader (BioTek, Synergy H1) was used to measure the OD value of each well at 450 nm.

[6] = tested on: 2Apro-induced relocalization of Hsp27 and hnRNP A1 in RD cells; assay: Immunofluorescence colocalization assay of 2Apro-induced relocalization of Hsp27 and hnRNP A1; conditions: 25 μM for 2 hours, transfected with 2Apro for 24 hours
Experimental: FIGS. 9A-9B Peptide S78 blocks the 2A^pro-induced relocalization of Hsp27 and hnRNP A1. RD cells on the coverslips were treated with peptides (S78, S78A, and S82A) at the concentration of 25 μM for 2 hours, and then transfected with 2A^pro for 24 hours. The cells were fixed and stained with anti-Hsp27and anti-hnRNPAI, followed by Alexa Fluor 488-conjugated anti-rabbit antibody and Alexa Fluor 594-conjugated anti-mouse antibody. The nuclei were stained with Hoechst. The images were captured by Nikon A1HD25 Confocal Microscope. The JACoP-plugin of the extended ImageJ version Fiji was used to compute the M1 colocalization coefficient, in which (FIG. 9A) is M1 colocalization coefficient for the fraction of Hsp27 in Hoechst and (FIG. 9B) is the M1 colocalization coefficient for the fraction of hnRNP A1 in Hoechst. Statistical analyses were carried out using Student's t-test. *: p<0.05, **: p<0.01, ***: p<0.001. Data are expressed as mean ±SD.
as §1

[7] = CCK-8 assay; conditions: human; RD cells, data not shown
Experimental: as §4

Substance | redistribution of Hsp27 and hnRNP A1 in EV-A71-infected RD cells [1] | effect on viral IRES activity (in words) [2] | reduction of VP1 level (densitometric assay) [3] | EV-A71 VP1 protein level (in words) [3] | effect on viral titer (in words) [4] | CC50 (in words) [5] | localization of Hsp27 and hnRNP A1 in mock RD cells ([1]; without EV-A71) | 2Apro-induced relocalization of Hsp27 and hnRNP A1 [6] | CC50 at 2 days [7] [µM]
Ac-RKKRRQRRRAYSRAAAAQLSS-NH2 [S78-3A] | partially suppressed | mildly decreased | about 60% | much weaker | mildly decreased | high |  |  | 
Ac-RKKRRQRRRAYSRALSRQLAS-NH2 [S82A] | dramatically blocked |  | > 90% | a little bit weaker inhibition |  |  | not affected | almost completely blocked | > 600
